Results on seven molecules are retold here after patent publication US20160175457A1, “OCULAR DEVICE” (DSM IP ASSETS B.V., priority 2013, published 2016).

Series [1] concerns proteinases present in tear fluid (contact lens rinsing liquid). In words: Incubation of synthetic peptides with tear fluid / contact lens rinsing liquid, cleavage followed by mass spectrometry. The class given is biochemical, human. The following applies: for endoproteolytic cleavage after Arg or Val by tear fluid / proteolytic cleavage observed after incubation with tear fluid (rinsing fluid): 162 hours (FIG. 2) / 165 hours at 25 degrees C. As to the method: (§1) Stock solutions (1 mg/ml in 5% acetonitrile) were prepared from the synthetic peptide substrates. The stock solutions are optionally 10× diluted with MilliQ water prior to incubation. Elastase (Sigma #: E7885), Tryptase (Sigma #: T7063), or tear fluid were added to the diluted substrate solutions and incubation was performed at 25° C. Aliquots of 20 μl were taken at several time points to monitor substrate degradation.
(§2) The aliquots were 10× diluted in 50% acetonitrile, 0.1% formic acid prior to analysis. Mass Spectrometric (MS) analysis was performed by infusion in the LTQ-Orbitrap Fourier Transform Mass Spectrometer (Thermo Fisher, Bremen, Germany). Infusion was performed by mixing 10 μl min^−1 of sample in a 200 μl min^−1 flow of 50% acetonitrile, 0.1% formic acid. The MS analysis was performed in the Orbitrap scanning at 7500 resolution using 200-1600 m/z mass range. Proteolytic activity during the different incubations of the synthetic peptides substrates was studied by manual inspection of the MS data using the Qual browser in the XCalibur software (Thermo Fisher, Bremen, Germany).
Contact lens wearing subjects were invited to participate at the end of their working day. Using sterilized gloves, lenses were removed and the inner surface of each lens was rinsed with 250 microliter of sterilized water. Then 100 microliter samples of the rinsing liquid were incubated overnight at 25 degrees C. with 100 μl of a 1.0 mg/ml BODIPY TR-X casein solution (EnzChek Protease Assay kit ‘Red fluorescence’; Molecular Probes, Eugene, Oreg., USA). Throughout the incubation the fluorescence of the samples was measured every minute (kinetic measurement) according to the EnzChek kit protocol (excitation=590±10 nm, emission=645±20 nm) using a Tecan Infinite M1000 microtiterplate reader (Männedorf, Switzerland).
After its purification, the peptide was incubated with contact lens rinsing liquid (cf. Example 1) of a single individual and incubated over the weekend at 25° C. Then samples of the incubation liquid were subjected to mass spectrometry to confirm cleavage. […] An incubation of the peptide with human leukocyte elastase (Sigma Aldrich) yielded GPLALL and AQ as the major cleavage products. An incubation of the peptide with human lung tryptase (also from Sigma Aldrich) yielded GPLAL/LAQ as the major cleavage products (see FIG. 1). The latter observations indicate that a peptide incorporating aliphatic hydrophobic residues like Ala and Leu support cleavage by human, tryptase- and elastase-like enzymes.
In this Example we test the cleavage activity of tear fluid on two, slightly different synthetic peptides. The first peptide comprises Arg as a charged, basic residue (Ala-Ala-Pro-Arg-Ala-Ala-Arg-Gln, AAPRAARQ (SEQ ID NO: 4)) in order to facilitate cleavage by trypsin-like endoproteases. The second peptide comprises the medium sized aliphatic hydrophobic residue Val instead of Arg (Ala-Ala-Pro-Val-Ala-Ala-Arg-Gln, AAPVAARQ (SEQ ID NO: 5)) in order to facilitate cleavage by elastase-like endoproteases. The experiment was executed essentially as described in Example 2, but in this case tear fluid of four different individuals was obtained and incubated for 165 hours at 25 degrees C. Samples of the incubation liquid were again subjected to mass spectrometry.

In series [2] the test system is human leukocyte elastase. In words: Incubation of synthetic peptides with human leukocyte elastase, mass spectrometry. The class given is biochemical. As to the method: as §1, §2
(§3) After its purification, the peptide was incubated with contact lens rinsing liquid (cf. Example 1) of a single individual and incubated over the weekend at 25° C. Then samples of the incubation liquid were subjected to mass spectrometry to confirm cleavage. […]

Series [3] relates to human lung tryptase. The series is described as follows: Incubation of synthetic peptide with human lung tryptase, mass spectrometry. The class given is biochemical. The following applies: 25° C., overnight (FIG. 1). The method, then: as §1, §2, §3
Series [4] deals with T1, peptide Gly-Pro-Leu-Ala-Leu-Leu-Ala-Gln (GPLALLAQ).
T1 sequence: GPLALLAQ

In series [5] the test system is proteinases in contact lens rinsing liquid (tear fluid). In words: Incubation of hyaluronic acid-peptide-HEMA conjugate with lyophilized contact lens rinsing liquid, LC-MS of peptide-HEMA fragments. The class given is biochemical, human. The following applies: 35 hours at 35° C., rinsing liquid of five individuals (hard and soft lenses). The text has this: (§4) To cope with this experimental difficulty, we decided to focus on the identification of Peptide-HEMA fragments that can be expected to be released from the hyaluronic acid-peptide-HEMA conjugate upon exposure to a suitable proteolytic activity. On the basis of peptide hydrolysis data gathered in Examples 2 and 5, peptide Leu-Leu-Leu-Ala-Ala-Gly (LLLAAG) was synthesized and used to prepare a hyaluronic acid-peptide-HEMA conjugate (Example 6).
Rinsing liquid was collected from 5 individuals, two wearing hard lenses and three wearing soft lenses, at the end of the working day over multiple days. The lenses were collected using sterile nitrile gloves and rinsed with 200 μl MilliQ water on a flat glass microscope slide (Thermo Scientific) containing Grace Bio-labs Press-to-Seal silicone isolator, No PSA (Sigma Aldrich GBL664504-25EA). The rinse liquid was transferred to a Protein LoBind Tube 2.0 ml (Eppendorf) using Maxymum Recovery pipette tips (Axygen scientific). The rinse liquid was frozen at −80° C. as soon as possible. Rinsing fluid was lyophilized overnight when >1.5 ml rinsing liquid was collected for each individual.
Hyaluronic acid-peptide-HEMA conjugates are too heterologous in mass to be directly detected by MS. […]
The conjugate (Example 6) was dissolved in 50 mM ammonium acetate buffer at 0.2 mg/ml and analyzed by 25 μl injections on the LC-MS system. […]

Series [6] relates to human elastase. The series is described as follows: Incubation of hyaluronic acid-peptide-HEMA conjugate with human elastase preparation, LC-MS. The class given is biochemical. The following applies: 35° C., data not shown. The method, then:
as §4
The conjugate (Example 6) was dissolved in 50 mM ammonium acetate buffer at 0.2 mg/ml and analyzed by 25 μl injections on the LC-MS system. The LC-MS system consisted of an Accela UHPLC (Thermo Fisher, Bremen, Germany) coupled to the LTQ-Orbitrap Fourier Transform Mass Spectrometer. The column used was a ZORBAX Rapid Resolution HT SB-C18, 2.1×50 mm, 1.8 μm (Agilent 827700-902). The autosampler was set to 35° C. for incubation of the samples and the column oven was set to 50° C. The analytes in the samples were separated using a flow of 0.8 ml min^−1 and the following gradient was used: […]
0-0.2 min 2.5% B, 0.2-2 min 2.5-30% B, 2-2.5 min 30-80% B, 2.5-3 min 80% B, 3.01-5 min 2.5% B, where buffer A is 0.1% Formic Acid in Water (Biosolve, LC-MS grade) and buffer B is 0.1% Formic Acid in Acetonitrile (Biosolve, LC-MS grade). The MS was scanning at 7500 resolution m/z 150-800. […]

The target of series [7] is T2, hyaluronic acid-peptide-HEMA conjugate (hyaluronic acid-Leu-Leu-Leu-Ala-Ala-Gly-HEMA).
T2 chain: LLLAAG

Series [8] has as its target T3, peptide Gly-Pro-Leu-Ala-Leu-Leu-Ala-Gln (GPLALLAQ).
T3 chain: GPLALLAQ

The target of series [9] is T4, peptide Leu-Leu-Leu-Ala-Ala-Gly (LLLAAG).
T4 chain: LLLAAG

Entries after “also recorded” stand apart in the source; their conditions may differ. Like-named read-outs stand apart in the source and are kept apart here. No end group written: not given here.

With “AAPRAARQ (peptide sequence cleavable by proteinases present in tear fluid) [Ala-Ala-Pro-Arg-Ala-Ala-Arg-Gln, synthetic test peptide comprising Arg as a charged, basic residue]”, in [1], the “endoproteolytic cleavage after Arg or Val by tear fluid” value is given as “Hydrolysis of peptide bonds involving Arg (R) is not observed” and the “proteolytic cleavage observed after incubation with tear fluid (rinsing fluid)” value is “only showing cleavage at the N-terminal Ala”.

“GPLALLAQ (peptide sequence cleavable by proteinases present in tear fluid) [Gly-Pro-Leu-Ala-Leu-Leu-Ala-Gln, linker test peptide cleavable by tear fluid proteinases]”: the “cleavage products identified after incubation with contact lens rinsing liquid (tear fluid)” value in [1] (rinsing liquid of a single individual, over the weekend at 25° C.) is “GPLAL and LAQ, GPL and ALLAQ and GPLA and LLAQ”. Also, the “major cleavage products after incubation with human leukocyte elastase” value in series [2] (25° C., 30 minutes (FIG. 1)) is “GPLALL and AQ”. Further, in series [3], the “major cleavage products after incubation with human lung tryptase” value is “GPLAL/LAQ”.

Take “AAPVAARQ (peptide sequence cleavable by proteinases present in tear fluid) [Ala-Ala-Pro-Val-Ala-Ala-Arg-Gln, synthetic test peptide comprising Val instead of Arg]”: in series [1], the “endoproteolytic cleavage after Arg or Val by tear fluid” value is reported as “Cleavage C-terminal of Val does not occur”; the “proteolytic cleavage observed after incubation with tear fluid (rinsing fluid)” value was “hydrolysis of the peptide bond between Pro and Val”.

As for human lung tryptase, the “peptide cleavage products by mass spectrometry” value in series [4] is “yielded GPLAL/LAQ as the major cleavage products”.

For “hyaluronic acid-peptide-HEMA conjugate: conjugate of hyaluronic acid with NH2-Leu-Leu-Leu-Ala-Ala-Gly hexapeptide and HEMA (hydroxyethyl methacrylate) (LLLAAG; not fully specified (N-terminus, C-terminus); printed as Leu-Leu-Leu-Ala-Ala-Gly; also: conjugate with hyaluronic acid and HEMA, attachment not given here)”, the “peptide-HEMA fragments formed upon incubation with concentrated (lyophilized) contact lens rinsing liquid” value in series [5] is listed as “formation of various peptide-HEMA fragments; also recorded: is able to cleave the peptide of the hyaluronic acid-peptide-HEMA conjugate; also recorded: LAAG-HEMA”. Further, in series [6], the “peptide-HEMA fragments formed upon incubation with elastase” value is “formation of the expected AG-HEMA fragment”.

With LLLAAG, the “conversion of intact peptide by elastase (digestion pattern)” value in series [2] (overnight at room temperature, 50 mM ammonium acetate buffer) is “converted to fragment Leu-Leu-Leu-Ala (LLLA); also recorded: completely converted to LLLA”.

B1: human leukocyte elastase (protein)
chain: IVGGRRARPHAWPFMVSLQLRGGHFCGATLIAPNFVMSAAHCVANVNVRAVRVVLGAHNLSRREPTRQVFAVQRIFENGYDPVNLLNDIVILQLNGSATINANVQVAQLPAQGRRLGNGVQCLAMGWGLLGRNRGIASVLQELNVTVVTSLCRRSNVCTLVRGRQAGVCFGDSGSPLVCNGLIHGIASFVRGGCASGLYPDAFAPVAQFVNWIDSIIQ
As to B1, the “peptide-HEMA fragments by LC-MS” value in series [7] is “showed the formation of the expected AG-HEMA fragment”. Also, the “peptide cleavage products by mass spectrometry” value in series [8] is “yielded GPLALL and AQ as the major cleavage products”; in [9] it was “precursor peptide Leu-Leu-Leu-Ala-Ala-Gly (LLLAAG) was converted to fragment Leu-Leu-Leu-Ala (LLLA)”.
